Seven compounds from PubChem BioAssay (NCI) can be followed below.

Holding throughout (test): NCI anticancer screen, dose series, 48 h
Test [1] deals with HCT-116 colon.
Test [2] relates to U251 CNS.
Test [3] has as its system HCT-15 colon.
For test [4], the system named is CCRF-CEM leukemia.
In test [5] the test system is HL-60(TB) leukemia.
Test [6] deals with MOLT-4 leukemia.
Test [7] deals with SW-620 colon.
The test system of test [8] is PC-3 prostate.
The test system of test [9] is 786-0 renal.
Test [10] relates to A549 NSCLC.

Several values for one entry are separate records, joined by “and”; a condition that tells them apart may be missing. Equal values may be shown once.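 Five concentrations, 48 hours, 96-well plates. GI50 marks 50% less growth. Definition used: TGI = concentration required for complete inhibition of growth.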

Take `O=C(CCCCCCNC(=O)c1cnc(N(c2ccccc2)c2ccccc2)nc1)NO`: the GI50 in [1] is 2.07 µM; in test [2] it was 3 µM; in test [3] it was 18.4 µM; in test [4], 1.03 µM; in test [5] it was 3.53 µM; in [6] it was 2.13 µM. Besides, the GI50 in [7] was 1.94 µM; in test [8] it was 4.87 µM; in test [9], 6.18 µM; in [10], 6.12 µM. In addition, the TGI in test [1] is over 33.9 µM; in test [2], 15.6 µM; in test [3], over 100 µM; in [4] it was over 100 µM; in test [5], over 62.3 µM; in [6], over 100 µM. The TGI in test [7] was over 29.7 µM; in test [8] it was over 100 µM; in test [9] it was over 73.1 µM; in test [10], over 92.7 µM.

For `C=C(C)C(O)CCC1(C)C=Cc2c(c(C)cc3c2[nH]c2ccccc23)O1` (stereo not drawn), the GI50 was 9.87 µM in test [1]; 1.93 µM in test [3]; 4.2 µM in test [4]; 4.24 µM in test [5]; 3.47 µM in [6]; 5.08 µM in test [7]. The GI50 in test [9] was 3.88 µM; in test [10], 5.02 µM. Besides, the TGI was 25 µM and 21.5 µM in test [1]; 11.1 µM and 17.6 µM in test [2]; 8.23 µM and 4.71 µM in test [3]; 25 µM and 16.7 µM in [4]; 25 µM and 19.9 µM in test [5]; 18.7 µM and 13.8 µM in [6]. Also, the TGI in test [7] is 10.2 µM and 18.7 µM; in test [8], 19.3 µM; in test [9], 10.8 µM and 14.2 µM; in test [10], 25 µM and 16.1 µM.

As for `COc1ccc(-c2nn(-c3cccc(Cl)c3)cc2-c2cc(-c3cccs3)[nH]c(=S)n2)cc1`, the GI50 in test [1] is 2.38 µM; in [2], 2.6 µM; in test [3] it was 3.69 µM; in [4] it was 2.8 µM; in test [5], 3.49 µM; in test [6], 3.03 µM. The GI50 is 3.79 µM in test [7], 3.09 µM in test [8], 4.18 µM in test [9] and 2.29 µM in [10]. In addition, the TGI was 11.2 µM in [1]; 12.4 µM in [2]; over 100 µM in test [3]; over 100 µM in test [4]; 13.2 µM in test [5]; 25.2 µM in test [6]. Moreover, the TGI in test [7] is 22.3 µM; in test [8], over 100 µM; in test [9] it was over 100 µM; in [10], 16.5 µM.

On to `C=CCN=c1sc2c(n1NC(=O)c1cc3ccc1CCc1ccc(cc1)CC3)C(=O)c1ccccc1C2=O`, for which the GI50 in test [1] is 0.577 µM; in test [2], 1.6 µM; in test [3], 1.52 µM; in test [4], 2.39 µM; in test [5] it was 0.395 µM; in test [6], 1.22 µM. Moreover, the GI50 in [7] was 1.63 µM; in test [8], 1.49 µM; in test [9], 2.3 µM; in [10], 2.26 µM. Moreover, the TGI in [1] is 2.58 µM; in [2], 4.28 µM; in test [3], 3.5 µM; in test [4], over 100 µM; in test [5], 3.26 µM; in test [6] it was 5.76 µM. In addition, the TGI in [7] worked out at 3.45 µM; in [8], 8.81 µM; in [9] it was 5.7 µM; in [10], 5.61 µM.

`CC(=O)NC1C(OC[C@@H](CC(=O)N[C@@H](CC(=O)O)CC(=O)N[C@H](CC(=O)N[C@@H](CCCN)CC(=O)N[C@@H](CCCN)CC(=O)N[C@H](CC(N)=O)C(C)C)C(C)C)NC(=O)C[C@@H](N)C(C)C)OC(CO)C(O)C1O` (stereo partly drawn): the GI50 in [1], in test [2], in [3], in [4], in test [5] and in test [6] was over 100 µM in each case. The GI50 in test [7], in test [8], in [9] and in test [10] was over 100 µM each time. Also, the TGI in test [1], in test [2], in test [3], in test [4], in [5] and in test [6] was over 100 µM throughout. Also, the TGI in [7], in [8], in test [9] and in [10] was over 100 µM each time.

In the case of `CCN1C(=O)N(CC)C2C1NN=c1s/c(=C\c3cccc(F)c3)c(=O)n12` (stereo not drawn), the GI50 in test [1] is 0.131 µM; in [2], 0.21 µM; in test [3], 0.0549 µM; in test [4], 0.181 µM; in [5], 0.0582 µM; in test [6], 0.327 µM. The GI50 in test [7] is 0.0845 µM; in [8], 0.185 µM; in test [9] it was 0.657 µM; in test [10], 0.282 µM. For the same compound, the TGI in test [1] was over 100 µM; in test [2], over 100 µM; in test [3], over 100 µM; in test [4], over 100 µM; in test [5], 0.46 µM; in test [6], over 100 µM. Further, the TGI in test [7], in [8], in test [9] and in test [10] was over 100 µM each time.

On to `COc1ccc(-c2cc3c(c4cc(OC)ccc24)C(=O)OC3=O)cc1`, for which the TGI in test [1], in [2], in test [3], in test [4], in test [5] and in [6] was over 100 µM throughout. The TGI in test [7], in [8], in test [9] and in test [10] was over 100 µM each time.
